In patent US11535597B2, “Photoreactive ligands and uses thereof” (The Scripps Research Institute, priority 2017, dated 2022):
Entries after “also recorded” stand apart in the source; their conditions may differ. Each block holds one compound with its values, some of them ahead of it.

How the values were obtained:
[1] = target: T1, PPARγ (Homo sapiens, UniProt P37231); assay: GAL4-PPARγ luciferase reporter assay with empty control vector in HEK293T cells; format: cell-based; settings: GAL4-PPARγ luciferase reporter and empty control vector
T1 construct: expressed in transfected cells; host or cells: HEK293T
T1 sequence (P37231 238-503 limits assumed): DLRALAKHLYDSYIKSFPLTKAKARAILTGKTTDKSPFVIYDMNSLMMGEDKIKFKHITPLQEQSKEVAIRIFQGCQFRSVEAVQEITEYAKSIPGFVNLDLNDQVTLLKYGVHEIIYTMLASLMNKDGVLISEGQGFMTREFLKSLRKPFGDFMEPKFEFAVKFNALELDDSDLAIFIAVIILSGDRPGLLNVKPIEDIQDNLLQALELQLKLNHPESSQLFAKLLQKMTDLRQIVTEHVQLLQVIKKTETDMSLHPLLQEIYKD
Method: HEK293T cells were transiently co-transfected using Polyethylenimine (Sigma) with a UAS-Luciferase reporter and a vector expressing the heterologous GAL4 DNA binding domain (DBD) or a GAL4 DNA binding domain::PPARγ ligand binding domain (LBD) chimeric protein, and full-length PTGR2. 24 hr after transfection, cells were treated either with vehicle (DMSO), 15k-PGE2 (20 μM), or fragment compounds. Rosiglitazone (2 μM), a synthetic PPARγ ligand, was used as control. 16 hr after incubation, cells were lysed in Cell Culture Lysis Reagent (Promega) and luciferase activity measured using the Luciferase Assay System (Promega).

[2] = target: T2, α-galactosidase (GLA) (Homo sapiens, UniProt P06280); assay: Mapping of FFF probe-modified peptides on α-galactosidase (GLA); format: binding; settings: near the active site and a secondary ligand binding site, respectively
T2 construct: endogenous in cells; host or cells: human cells (HEK293T; a subset of probes also in K562)
T2 sequence (P06280 32-429): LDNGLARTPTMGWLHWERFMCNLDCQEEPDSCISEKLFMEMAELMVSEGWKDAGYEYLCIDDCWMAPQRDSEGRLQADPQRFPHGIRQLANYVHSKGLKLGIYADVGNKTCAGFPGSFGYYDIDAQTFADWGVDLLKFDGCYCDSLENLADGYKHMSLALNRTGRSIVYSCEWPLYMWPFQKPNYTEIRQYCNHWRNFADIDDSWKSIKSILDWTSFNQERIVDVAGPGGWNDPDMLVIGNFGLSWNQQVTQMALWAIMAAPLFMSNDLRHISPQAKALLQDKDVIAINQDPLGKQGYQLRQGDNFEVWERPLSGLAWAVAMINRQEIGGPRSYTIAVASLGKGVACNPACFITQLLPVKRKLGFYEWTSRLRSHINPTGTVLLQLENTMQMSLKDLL
Method: (§1) Preparation and analysis was adapted from methods previously reported. In brief, for global mapping of fragment probe-modified peptides, separate 10 cm dishes of cells were treated with probes (200-250 μM) in 3.0 mL of DMEM (serum-free) and (if applicable) competitor ligands, proteomes harvested and subjected to click chemistry conditions with either light or heavy isotopically labeled biotin-TEV-azide (10 μL of 5 mM stocks in DMSO, final concentration=100 μM), TCEP, ligand and CuSO4 as detailed above. The samples were allowed to react for 1 h at which point the samples were centrifuged (16,000 g, 5 min, 4° C.). The resulting pellets were sonicated in ice-cold methanol (500 μL) and the resuspended light- and heavy-labeled samples were then combined and centrifuged (16,000 g, 5 min, 4° C.). The pellets were then solubilized in PBS containing 1.2% SDS (1 mL) with sonication and heating (5 min, 95° C.). Samples were transferred to falcon tubes containing DPBS (5 mL), to which a 100 μL of streptavidin-agarose beads slurry was added. After incubation, the beads (3 hr) were pelleted by centrifugation (1,400 g, 3 min) and were washed (2×10 mL PBS and 2×10 mL water). The beads were transferred to eppendorf tubes with 1 mL DPBS, centrifuged (1,400 g, 3 min), and resuspended in PBS containing 6 M urea. To this was added 10 mM DTT (25 μL of a 200 mM stock in water) and the beads were incubated at 65° C. for 15 mins. 20 mM iodoacetamide (25 μL of a 400 mM stock in water) was then added and allowed to react at 37° C. for 30 mins with shaking. The bead mixture was diluted with 900 μL PBS, pelleted by centrifugation (1,400 g, 3 min), and resuspended in 200 μL 2M urea (DPBS) containing trypsin and CaCl2 as described above. The beads were separated from the digest by centrifugation (1,000 g, 1 min), washed (2×1 mL PBS and 2×1 mL water) and then transferred to fresh eppendorfs with 1 mL water. The washed beads were washed once further in 150 μL TEV buffer (50 mM Tris, pH 8, 0.5 mM EDTA, 1 mM DTT) by centrifugation (1,400 g, 3 min) and the resuspended in 150 μL TEV buffer. 5 μL TEV protease (80 μM) was added and the reactions were rotated overnight at 29° C. The TEV digest was separated from the beads by centrifugation (1,400 g, 3 min) and the beads were washed once with water (100 μL). The samples were then acidified to a final concentration of 5% (v/v) formic acid and stored at −80° C. prior to analysis.
(§2) The resulting probe-modified peptides were collected for MS analysis, which was performed as described above with differences in the salt bumps applied in the chromatographic gradients which in this case were 0%, 30%, 60%, 90% and 100% NH4OAc (500 μM). […] The isoTOP ratios for probe labeled peptides were quantified using the in-house software CIMAGE. […]

[3] = target: T3, BAX (Homo sapiens, UniProt Q07812); assay: Mapping of FFF probe-modified peptide on BAX; format: binding; settings: for Labeled Peptide: residues of probe-labeled peptide
T3 construct: endogenous in cells; host or cells: human cells (HEK293T; a subset of probes also in K562)
Method: as §1, with “The beads were separated from the digest by centrifugation (1,000 g, 1 min), washed (2×1 mL PBS and 2×1 mL water) and then transferred to fresh eppendorfs with 1 mL water. The washed beads were washed once further in 150 μL TEV buffer (50 mM Tris, pH 8, 0.5 mM EDTA, 1 mM DTT) by centrifugation (1,400 g, 3 min) and the resuspended in 150 μL TEV buffer. 5 μL TEV protease (80 μM) was added and the reactions were rotated overnight at 29° C. The TEV digest was separated from the beads by centrifugation (1,400 g, 3 min) and the beads were washed once with water (100 μL). The samples were then acidified to a final concentration of 5% (v/v) formic acid and stored at −80° C. prior to analysis.” left out
as §2

T3 sequence (Q07812 whole entry): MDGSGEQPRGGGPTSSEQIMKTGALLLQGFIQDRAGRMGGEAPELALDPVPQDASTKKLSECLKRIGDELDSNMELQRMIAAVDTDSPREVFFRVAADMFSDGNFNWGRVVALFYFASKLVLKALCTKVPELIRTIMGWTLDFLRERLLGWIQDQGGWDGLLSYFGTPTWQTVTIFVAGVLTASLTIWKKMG

SMILES: COc1ccccc1N1CCN(C(=O)Cc2ccccc2)CC1 [Compound 22, 1-(4-(2-Methoxyphenyl)piperazin-1-yl)-2-phenylethan-1-one]
- direct modulation of PPARγ transcriptional activity [1]: do not directly induce; also recorded: Neither 22 nor 23 directly modulated

- probe-modified peptides in GLA [2]: aa 50-68; also recorded: aa 241-253
SMILES: C#CCCC1(CCC(=O)Nc2ccc(C3CCNCC3)cc2)N=N1 [probe 9, 3-(3-(But-3-yn-1-yl)-3H-diazirin-3-yl)-N-(4-(piperidin-4-yl)phenyl)propanamide]

- probe-modified peptide in BAX ([3]; groove that binds BH3-domain activators Bim and Bid): aa 66-79
- Labeled Peptide ([3]; protein BAX (Q07812)): 66-78
- Labeled Peptide ([3]; protein BAX Apoptosis regulator BAX): 66-78
SMILES: C#CCCC1(CCC(=O)N2CCCCC2Cc2ccccc2)N=N1 (centres unmarked) [probe 13, 1-(2-Benzylpiperidin-1-yl)-3-(3-(but-3-yn-1-yl)-3H-diazirin-3-yl)propan-1-one]
